Measured values as given in PubChem BioAssay AID256 (DTP/NCI, 2004).
Several values for one entry are separate records, joined by “and”; a condition that tells them apart may be missing. Equal entries are not always repeated. Inconclusive results and toxic doses are left out.

System: CD2F1 mice, L1210 leukemia ip, survival T/C
Assay: NCI In Vivo Anticancer Drug Screen. Data for tumor model L1210 Leukemia (intraperitoneal) in CD2F1 (CDF1) mice
Details: endpoint: mean survival time, higher = longer survival
Procedure, shortened: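 Read-out first: treated-group measurement over vehicle-control measurement, expressed as a ratio. Animals bore a transplanted tumor line and were dosed with compound or vehicle.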

[1] = dose: 75.0 mg/kg/injection, schedule: Q01DX001 (ip), vehicle: saline
[2] = dose: 100.0 mg/kg/injection, schedule: Q01DX001 (ip), vehicle: saline with Tween-80
[3] = dose: 200.0 mg/kg/injection, schedule: Q01DX001 (ip), vehicle: saline with Tween-80
[4] = dose: 400.0 mg/kg/injection, schedule: Q01DX001 (ip), vehicle: saline with Tween-80
[5] = dose: 100.0 mg/kg/injection, schedule: Q04DX003 (ip), vehicle: saline with Tween-80
[6] = dose: 200.0 mg/kg/injection, schedule: Q04DX003 (ip), vehicle: saline with Tween-80
[7] = dose: 400.0 mg/kg/injection, schedule: Q04DX003 (ip), vehicle: saline with Tween-80
[8] = dose: 100.0 mg/kg/injection, schedule: Q01DX001 (ip), vehicle: saline
[9] = dose: 100.0 mg/kg/injection, schedule: Q04DX002 (ip), vehicle: saline with Tween-80
[10] = dose: 400.0 mg/kg/injection, schedule: Q04DX002 (ip), vehicle: saline with Tween-80

Cc1cncn1Cc1ccccc1
T/C (dose: 50.0 mg/kg/injection, schedule: Q01DX009 (ip), vehicle: Klucel (hydroxypropylcellulose) (HPC)): 94 % of control | T/C (dose: 100.0 mg/kg/injection, schedule: Q01DX009 (ip), vehicle: Klucel (hydroxypropylcellulose) (HPC)): 108 % of control | T/C (dose: 200.0 mg/kg/injection, schedule: Q01DX009 (ip), vehicle: Klucel (hydroxypropylcellulose) (HPC)): 103 % of control

CN(Cc1cnc2nc(N)nc(N)c2n1)c1ccc(C(=O)NC(CCC(=O)O)C(=O)NC(CCC(=O)O)C(=O)O)cc1 (centres undefined)
T/C (dose: 1.0 mg/kg/injection, schedule: Q01DX009 (ip), vehicle: sodium bicarbonate): 105 % of control | T/C (dose: 2.0 mg/kg/injection, schedule: Q01DX009 (ip), vehicle: sodium bicarbonate): 100 % of control | T/C (dose: 5.0 mg/kg/injection, schedule: Q01DX009 (ip), vehicle: sodium bicarbonate): 102 % of control | T/C (dose: 25.0 mg/kg/injection, schedule: Q01DX009 (ip), vehicle: sodium bicarbonate): 167 % of control

Nc1nc(N)c2c(n1)NCN(CCc1ccccc1Cl)C2
T/C (dose: 0.75 mg/kg/injection, schedule: Q01DX009 (ip), vehicle: distilled water + Tween-80): 93 % of control | T/C (dose: 1.5 mg/kg/injection, schedule: Q01DX009 (ip), vehicle: distilled water + Tween-80): 98 % of control | T/C (dose: 3.0 mg/kg/injection, schedule: Q01DX009 (ip), vehicle: distilled water + Tween-80): 94 % of control | T/C (dose: 6.0 mg/kg/injection, schedule: Q01DX009 (ip), vehicle: distilled water + Tween-80): 100 % of control | T/C (dose: 12.0 mg/kg/injection, schedule: Q01DX009 (ip), vehicle: distilled water + Tween-80): 94 % of control | T/C (dose: 24.0 mg/kg/injection, schedule: Q01DX009 (ip), vehicle: distilled water + Tween-80): 102 % of control | T/C (dose: 48.0 mg/kg/injection, schedule: Q01DX009 (ip), vehicle: distilled water + Tween-80): 96 % of control | T/C (dose: 80.0 mg/kg/injection, schedule: Q01DX009 (ip), vehicle: distilled water + Tween-80): 96 % of control

C/C(=N\N(C)C)C(C)(C)C
T/C [1]: 93 % of control | T/C (dose: 150.0 mg/kg/injection, schedule: Q01DX001 (ip), vehicle: saline): 100 % of control | T/C (dose: 300.0 mg/kg/injection, schedule: Q01DX001 (ip), vehicle: saline): 108 % of control

O=[N+]([O-])C1=C(c2ccccc2)SC=C(c2ccccc2)S1
T/C [2]: 87 % of control | T/C [3]: 97 % of control | T/C [4]: 105 % of control

Cc1cccc(Cl)c1NC(=O)CCCl
T/C [5]: 97 % of control | T/C [6]: 106 % of control | T/C [7]: 98 % of control

COc1cc2c(cc1OC)C(CCN)NCC2 (centres undefined)
T/C [2]: 97 % of control | T/C [3]: 100 % of control | T/C [4]: 94 % of control

COC(CNCCO)c1ccccc1 (centres undefined)
T/C (dose: 25.0 mg/kg/injection, schedule: Q01DX001 (ip), vehicle: saline): 97 % of control | T/C (dose: 50.0 mg/kg/injection, schedule: Q01DX001 (ip), vehicle: saline): 101 % of control | T/C [8]: 100 % of control and 106 % of control

CC(=O)NCCc1ccc2c(c1)[nH]c1ccccc12
T/C [8]: 101 % of control | T/C (dose: 200.0 mg/kg/injection, schedule: Q01DX001 (ip), vehicle: saline): 100 % of control | T/C (dose: 400.0 mg/kg/injection, schedule: Q01DX001 (ip), vehicle: saline): 93 % of control

N#CC(/C=C/c1ccccc1)Nc1ccccc1C(N)=O (centres undefined)
T/C (dose: 100.0 mg/kg/injection, schedule: Q04DX003 (ip), vehicle: saline sonified): 97 % of control | T/C (dose: 200.0 mg/kg/injection, schedule: Q04DX003 (ip), vehicle: saline sonified): 97 % of control | T/C (dose: 400.0 mg/kg/injection, schedule: Q04DX003 (ip), vehicle: saline sonified): 97 % of control

CCCCCCC(C)Oc1ccc(Cl)cc1Cl (centres undefined)
T/C [9]: 90 % of control | T/C (dose: 200.0 mg/kg/injection, schedule: Q04DX002 (ip), vehicle: saline with Tween-80): 90 % of control | T/C [10]: 101 % of control

CN(C)Cc1c(-c2ccccc2)c(CN(C)C)n2ccccc12
T/C [1]: 97 % of control

OCCSc1c(Cl)c(Cl)c(Cl)c(Cl)c1Cl
T/C (dose: 25.0 mg/kg/injection, schedule: Q04DX002 (ip), vehicle: saline with Tween-80): 98 % of control | T/C (dose: 50.0 mg/kg/injection, schedule: Q04DX002 (ip), vehicle: saline with Tween-80): 95 % of control | T/C [9]: 115 % of control | T/C [10]: 90 % of control

Cc1c(Cc2ccccc2)[n+](=O)c2ccccc2n1[O-]
T/C [5]: 97 % of control | T/C [6]: 101 % of control | T/C [7]: 98 % of control

Brc1ccc([Si](c2ccccc2)(c2ccccc2)c2ccc(Br)cc2)cc1
T/C [5]: 102 % of control | T/C [6]: 108 % of control | T/C [7]: 106 % of control

Cc1[nH]c2ccccc2c1C(C)(Cc1cc2ccccc2[nH]1)c1ccncc1 (centres undefined)
T/C (dose: 100.0 mg/kg/injection, schedule: Q01DX009 (ip), vehicle: saline with Tween-80): 91 % of control | T/C (dose: 200.0 mg/kg/injection, schedule: Q01DX009 (ip), vehicle: saline with Tween-80): 100 % of control | T/C (dose: 400.0 mg/kg/injection, schedule: Q01DX009 (ip), vehicle: saline with Tween-80): 91 % of control

Nc1ncnc2nc(C3COCCO3)[nH]c12 (centres undefined)
T/C (dose: 12.5 mg/kg/injection, schedule: Q01DX005 (ip), vehicle: distilled water + Tween-80): 90 % of control | T/C (dose: 25.0 mg/kg/injection, schedule: Q01DX005 (ip), vehicle: distilled water + Tween-80): 94 % of control | T/C (dose: 50.0 mg/kg/injection, schedule: Q01DX005 (ip), vehicle: distilled water + Tween-80): 94 % of control | T/C (dose: 100.0 mg/kg/injection, schedule: Q01DX005 (ip), vehicle: distilled water + Tween-80): 96 % of control | T/C (dose: 200.0 mg/kg/injection, schedule: Q01DX005 (ip), vehicle: distilled water + Tween-80): 104 % of control

O=C(Nc1cc(Cl)c(NC(=O)c2ccccc2)c(Cl)c1)c1ccccc1
T/C [2]: 96 % of control | T/C [3]: 89 % of control | T/C [4]: 86 % of control

O=C1OC(O)C(Br)=C1Br (centres undefined)
T/C (dose: 100.0 mg/kg/injection, schedule: Q04DX002 (ip), vehicle: Klucel (hydroxypropylcellulose) (HPC)): 105 % of control | T/C (dose: 200.0 mg/kg/injection, schedule: Q04DX002 (ip), vehicle: Klucel (hydroxypropylcellulose) (HPC)): 91 % of control | T/C (dose: 400.0 mg/kg/injection, schedule: Q04DX002 (ip), vehicle: Klucel (hydroxypropylcellulose) (HPC)): 89 % of control
